System: P. aeruginosa
Assay: Phase 2 study: P. aeruginosa density in sputum
Assay type: in vivo, Pseudomonas aeruginosa
Conditions: EE; for Reduction in P. aeruginosa density in sputum: median Day 1 to Day 28
Experimental: The following dosage regimens (as nebulizer loaded doses) were evaluated: 120 mg QD (daily); 240 mg QD (daily); and 240 mg BID (twice daily).
Patients were assessed on Day 1, 7, 14, and 28, and then up to 28 days after completion of study drug, namely, Days 42 and 56. The end of the study was defined as the last visit of the last patient.
Efficacy was evaluated by microbiologic assessment of sputum samples, time to need for anti-pseudomonal antimicrobials, the Cystic Fibrosis Questionaire-Revised (CFQ-R), and pulmonary function tests. […] Pair-wise comparisons between all the treatment arms were conducted as secondary analyses.

[1] = combined 240 mg QD and BID, Baseline to Day 7
[2] = combined 240 mg QD and BID, Baseline to Day 14
[3] = combined 240 mg QD and BID, Baseline to Day 28
[4] = combined 240 mg QD and BID, Day 1
[5] = combined 240 mg QD and BID, Day 7
[6] = combined 240 mg QD and BID, Day 14
[7] = combined 240 mg QD and BID, Day 28

For `C[C@H]1COc2c(N3CCN(C)CC3)c(F)cc3c(=O)c(C(=O)O)cn1c23` [Levofloxacin, levofloxacin], the “Change in P. aeruginosa density, mean (SD)” value (120 mg QD, Baseline to Day 7) was −0.76 (1.263) log10 CFU sputum, the “Change in P. aeruginosa density, median” value (120 mg QD, Baseline to Day 7) was −0.58 log10 CFU sputum and the “Change in P. aeruginosa density, mean (SD)” value (120 mg QD, Baseline to Day 14) was −0.10 (1.240) log10 CFU sputum. For the same compound, the “Change in P. aeruginosa density, median” value (120 mg QD, Baseline to Day 14) was 0.00 log10 CFU sputum, the “Change in P. aeruginosa density, mean (SD)” value (120 mg QD, Baseline to Day 28) was −0.31 (1.050) log10 CFU sputum and the “Change in P. aeruginosa density, median” value (120 mg QD, Baseline to Day 28) was −0.20 log10 CFU sputum. For the same compound, the “P. aeruginosa density, median” value (120 mg QD, Day 1) was 8.17 log10 CFU sputum, the “P. aeruginosa density, mean (SD)” value (120 mg QD, Day 7) was 6.64 (1.818) log10 CFU sputum and the “P. aeruginosa density, median” value (120 mg QD, Day 7) was 6.86 log10 CFU sputum. The “P. aeruginosa density, mean (SD)” value (120 mg QD, Day 14) was 7.32 (1.643) log10 CFU sputum, the “P. aeruginosa density, median” value (120 mg QD, Day 14) was 8.00 log10 CFU sputum and the “P. aeruginosa density, mean (SD)” value (120 mg QD, Day 28) was 7.25 (1.431) log10 CFU sputum. For the same compound, the “P. aeruginosa density, median” value (120 mg QD, Day 28) was 7.78 log10 CFU sputum, the “Reduction in P. aeruginosa density in sputum” value (120 mg QD) was “approximately 59%” and the “Change in P. aeruginosa density, mean (SD)” value (240 mg BID, Baseline to Day 7) was −1.03 (1.921) log10 CFU sputum. For the same compound, the “Change in P. aeruginosa density, median” value (240 mg BID, Baseline to Day 7) was −0.88 log10 CFU sputum, the “Change in P. aeruginosa density, mean (SD)” value (240 mg BID, Baseline to Day 14) was −0.83 (1.901) log10 CFU sputum and the “Change in P. aeruginosa density, median” value (240 mg BID, Baseline to Day 14) was −0.91 log10 CFU sputum. The “Change in P. aeruginosa density, mean (SD)” value (240 mg BID, Baseline to Day 28) was −0.74 (1.488) log10 CFU sputum, the “Change in P. aeruginosa density, median” value (240 mg BID, Baseline to Day 28) was −0.68 log10 CFU sputum and the “P. aeruginosa density, mean (SD)” value (240 mg BID, Day 1) was 7.26 (1.433) log10 CFU sputum. The “P. aeruginosa density, median” value (240 mg BID, Day 1) was 7.84 log10 CFU sputum, the “P. aeruginosa density, mean (SD)” value (240 mg BID, Day 7) was 6.23 (1.850) log10 CFU sputum and the “P. aeruginosa density, median” value (240 mg BID, Day 7) was 6.52 log10 CFU sputum. The “P. aeruginosa density, mean (SD)” value (240 mg BID, Day 14) was 6.43 (1.725) log10 CFU sputum, the “P. aeruginosa density, median” value (240 mg BID, Day 14) was 6.81 log10 CFU sputum and the “P. aeruginosa density, mean (SD)” value (240 mg BID, Day 28) was 6.65 (1.440) log10 CFU sputum. The “P. aeruginosa density, median” value (240 mg BID, Day 28) was 6.40 log10 CFU sputum, the “Reduction in P. aeruginosa density in sputum” value (240 mg BID) was “approximately 96%” and the “Change in P. aeruginosa density, mean (SD)” value (240 mg QD, Baseline to Day 7) was −0.25 (1.789) log10 CFU sputum. The “Change in P. aeruginosa density, median” value (240 mg QD, Baseline to Day 7) was −0.18 log10 CFU sputum, the “Change in P. aeruginosa density, mean (SD)” value (240 mg QD, Baseline to Day 14) was −0.47 (1.905) log10 CFU sputum and the “Change in P. aeruginosa density, median” value (240 mg QD, Baseline to Day 14) was −0.11 log10 CFU sputum. For the same compound, the “Change in P. aeruginosa density, mean (SD)” value (240 mg QD, Baseline to Day 28) was −0.38 (1.780) log10 CFU sputum, the “Change in P. aeruginosa density, median” value (240 mg QD, Baseline to Day 28) was −0.52 log10 CFU sputum and the “P. aeruginosa density, mean (SD)” value (240 mg QD, Day 1) was 7.16 (1.597) log10 CFU sputum. For the same compound, the “P. aeruginosa density, median” value (240 mg QD, Day 1) was 7.97 log10 CFU sputum, the “P. aeruginosa density, mean (SD)” value (240 mg QD, Day 7) was 6.94 (1.783) log10 CFU sputum and the “P. aeruginosa density, median” value (240 mg QD, Day 7) was 7.15 log10 CFU sputum. For the same compound, the “P. aeruginosa density, mean (SD)” value (240 mg QD, Day 14) was 6.69 (1.628) log10 CFU sputum, the “P. aeruginosa density, median” value (240 mg QD, Day 14) was 6.46 log10 CFU sputum and the “P. aeruginosa density, mean (SD)” value (240 mg QD, Day 28) was 6.78 (1.896) log10 CFU sputum. For the same compound, the “P. aeruginosa density, median” value (240 mg QD, Day 28) was 7.38 log10 CFU sputum, the “Reduction in P. aeruginosa density in sputum” value (240 mg QD) was “approximately 74%” and the “Largest difference in P. aeruginosa density, placebo vs levofloxacin” value (Day 7) was 1.62 log10 CFU/g sputum. The “Largest difference in P. aeruginosa density, placebo vs levofloxacin” value (Day 14) was 1.39 log10 CFU/g sputum, the “Largest difference in P. aeruginosa density, placebo vs levofloxacin” value (Day 28) was 1.88 log10 CFU/g sputum and the “Change in P. aeruginosa density, mean (SD)” value [1] was −0.64 (1.833) log10 CFU sputum. The “Change in P. aeruginosa density, median” value [1] was −0.37 log10 CFU sputum, the “Change in P. aeruginosa density, mean (SD)” value [2] was −0.65 (1.898) log10 CFU sputum and the “Change in P. aeruginosa density, median” value [2] was −0.46 log10 CFU sputum. For the same compound, the “Change in P. aeruginosa density, mean (SD)” value [3] was −0.55 (1.645) log10 CFU sputum, the “Change in P. aeruginosa density, median” value [3] was −0.58 log10 CFU sputum and the “P. aeruginosa density, mean (SD)” value [4] was 7.21 (1.508) log10 CFU sputum. The “P. aeruginosa density, median” value [4] was 7.90 log10 CFU sputum, the “P. aeruginosa density, mean (SD)” value [5] was 6.59 (1.838) log10 CFU sputum and the “P. aeruginosa density, median” value [5] was 6.77 log10 CFU sputum. The “P. aeruginosa density, mean (SD)” value [6] was 6.56 (1.669) log10 CFU sputum, the “P. aeruginosa density, median” value [6] was 6.78 log10 CFU sputum and the “P. aeruginosa density, mean (SD)” value [7] was 6.72 (1.683) log10 CFU sputum. The “P. aeruginosa density, median” value [7] was 6.90 log10 CFU sputum.

Source: patent publication US10792289B2 (Horizon Orphan LLC, priority 2009, dated 2020)
